Drawing on patent publication EP0471841A1, “SULFONAMIDE DERIVATIVE AND PHARMACEUTICAL COMPOSITION CONTAINING THE SAME” (Asahi Kasei Kogyo Kabushiki Kaisha, priority 1990, dated 1991), this text covers EC50 for 40 compounds.

Structures can show the parent of a compound that is named as a salt.

One test concerns tracheal specimens excised from guinea pigs. The test is described as follows: Inhibitory effect on KCl-induced contraction of tracheal specimens excised from guinea pigs (Magnus tube). The class given is cell-based. The following applies: Cavia porcellus; dose required for relaxing KCl-induced contraction to 50 %; final KCl concentration: 20 mM; 37 °C; compounds other than acid addition salts used as hydrochloride; 3 specimens per group; read-out: ED₅₀ Effect on KCl-induced contraction. How it is done: The bronchial smooth muscle-relaxing action of the sulfonamide derivative of the present invention was evaluated by the effect on suppression of KCl-induced contraction and PGF2α-induced contraction of bronchial specimens excised from guinea pigs.
According to a method in which tracheal specimens excised from guinea pigs were used (Takagi and Ozawa, "Yakubutsugaku Jikken (Experiments in Pharmacology)", pp.100-102, 1960, published by Nanzando Japan; and Fujiwara and Shibata, "Yakurigaku Kiso Jikenho (Methods of Fundamental Experiments in Pharmacology)" pp.131-134, 1982, published by Kyourin, Japan), relaxing effect of sulfonamide derivatives of the present invention on bronchial smooth muscle was examined. Of compounds (1) to (69) shown herein, compounds other than acid addition salts were individually used in the form of a hydrochloride which was obtained by the same method as described in Example 61.
From male guinea pigs weighing 350 to 500 g (Hartley strain, Kuroda Junkei Dobutsu), tracheas were excised and each of the excised tracheal specimens was hung in 20 ml of a Magnus tube filled with Krebs-Henseleit solution under isotonic conditions and the solution temperature was kept at 37 °C. An aqueous KCl solution was dropwise added into the Magnus tube (final KCl concentration: 20 mM) to contract the tracheal specimen. After the KCl-induced contraction became stable, each of the compounds of the present invention was dissolved in distilled water or physiological saline, and the compound solution was cumulatively added into the Magnus tube. The relaxing effect of each of the compounds of the present invention on contracted tracheal specimens was evaluated and a dose-response curve was obtained.
A dose required for relaxing KCl-induced contraction to 50 %, i.e., ED₅₀ was calculated from the dose-response curve. For comparison, the same method as described above was repeated except that aminophylline was used, to thereby determine an ED₅₀. The number of tracheal specimens in each group was 3.
Turning to `O=S(=O)(NCCNCCc1ccc2c(c1)OCO2)c1cccc2cnccc12` [(1), N-[2-(3,4-methylenedioxyphenethylamino)ethyl]-5-isoquinolinesulfonamide], the EC50 came to 7.4 µM.

Take `O=S(=O)(NCCNCCc1ccc2c(c1)OCO2)c1cccc2c(O)nccc12` [(2), N-[2-(3,4-methylenedioxyphenethylamino)ethyl]-1-hydroxy-5-isoquinolinesulfonamide hydrochloride]: the EC50 turned out to be 15 µM.

For the compound `COc1ccc(CCNCCNS(=O)(=O)c2ccc(Cl)c3ncccc23)cc1` [(5), N-[2-(4-methoxyphenethylamino)ethyl]-8-chloro-5-quinolinesulfonamide], the EC50 amounted to 28 µM.

For `O=S(=O)(NCCNCCc1ccc(Cl)cc1)c1ccc(Cl)c2ncccc12` [(6), N-[2-(4-chlorophenethylamino)ethyl]-8-chloro-5-quinolinesulfonamide], the EC50 came out at 60 µM.

Turning to `O=S(=O)(NCCNCCc1ccc(C(F)(F)F)cc1)c1ccc(Cl)c2ncccc12` [(7), N-[2-(4-trifluoromethylphenethylamino)ethyl]-8-chloro-5-quinolinesulfonamide], the EC50 was found to be 70 µM.

For the compound `COc1ccc(CCNCCNS(=O)(=O)c2ccc(Cl)c3ncccc23)cc1OC` [(8), N-[2-(3,4-dimethoxyphenethylamino)ethyl]-8-chloro-5-quinolinesulfonamide], the EC50 came to 120 µM.

As to `O=S(=O)(NCCNCCc1ccc2c(c1)OCO2)c1ccc(Cl)c2ncccc12` [(9), N-[2-(3,4-methylenedioxyphenethylamino)ethyl]-8-chloro-5-quinolinesulfonamide], the EC50 is 30 µM.

For `O=S(=O)(NCCNCc1cccc(Cl)c1)c1ccc(Cl)c2ncccc12` [(10), N-[2-(3-chlorobenzylamino)ethyl]-8-chloro-5-quinolinesulfonamide], the EC50 worked out at 120 µM.

Consider `COc1ccc(CNCCNS(=O)(=O)c2ccc(Cl)c3ncccc23)cc1` [(11), N-[2-(4-methoxybenzylamino)ethyl]-8-chloro-5-quinolinesulfonamide], for which the EC50 is 125 µM.

As for `COc1ccc(CNCCNS(=O)(=O)c2ccc(Cl)c3ncccc23)cc1OC` [(12), N-[2-(3,4-dimethoxybenzylamino)ethyl]-8-chloro-5-quinolinesulfonamide], the EC50 was found to be 160 µM.

Regarding `O=S(=O)(NCCNCc1ccc2c(c1)OCO2)c1ccc(Cl)c2ncccc12` [(13), N-[2-(3,4-methylenedioxybenzylamino)ethyl]-8-chloro-5-quinolinesulfonamide], the EC50 is 28 µM.

As to `O=S(=O)(NCCNCc1ccccc1)c1ccc(Cl)c2ncccc12` [(14)], the EC50 was determined as 97 µM.

On to `O=S(=O)(NCCNCCc1ccccc1)c1ccc(Cl)c2ncccc12` [(15)], for which the EC50 was found to be 110 µM.

Take `CCOc1ccc(S(=O)(=O)NCCNCCc2ccc(OC)cc2)c2cccnc12` [(16), N-[2-(4-methoxyphenethylamino)ethyl]-8-ethoxy-5-quinolinesulfonamide]: the EC50 turned out to be 35 µM.

`CCOc1ccc(S(=O)(=O)NCCNCCc2ccc(Cl)cc2)c2cccnc12` [(17), N-[2-(4-chlorophenethylamino)ethyl]-8-ethoxy-5-quinolinesulfonamide]: the EC50 was 71 µM.

`CCOc1ccc(S(=O)(=O)NCCNCCc2ccc(C(F)(F)F)cc2)c2cccnc12` [(18), N-[2-(4-trifluoromethylphenethylamino)ethyl]-8-ethoxy-5-quinolinesulfonamide]: the EC50 was determined as 75 µM.

On to `CCOc1ccc(S(=O)(=O)NCCNCCc2ccc(OC)c(OC)c2)c2cccnc12` [(19), N-[2-(3,4-dimethoxyphenethylamino)ethyl]-8-ethoxy-5-quinolinesulfonamide], for which the EC50 turned out to be 125 µM.

Regarding `CCOc1ccc(S(=O)(=O)NCCNCCc2ccc3c(c2)OCO3)c2cccnc12` [(20), N-[2-(3,4-methylenedioxyphenethylamino)ethyl]-8-ethoxy-5-quinolinesulfonamide], the EC50 is 38 µM.

On to `CCOc1ccc(S(=O)(=O)NCCNCc2cccc(Cl)c2)c2cccnc12` [(21), N-[2-(3-chlorobenzylamino)ethyl]-8-ethoxy-5-quinolinesulfonamide], for which the EC50 amounted to 128 µM.

In the case of `CCOc1ccc(S(=O)(=O)NCCNCc2ccc(OC)cc2)c2cccnc12` [(22), N-[2-(4-methoxybenzylamino)ethyl]-8-ethoxy-5-quinolinesulfonamide], the EC50 stood at 131 µM.

As for `CCOc1ccc(S(=O)(=O)NCCNCc2ccc(OC)c(OC)c2)c2cccnc12` [(23), N-[2-(3,4-dimethoxybenzylamino)ethyl]-8-ethoxy-5-quinolinesulfonamide], the EC50 amounted to 163 µM.

Consider `CCOc1ccc(S(=O)(=O)NCCNCc2ccc3c(c2)OCO3)c2cccnc12` [(24), N-[2-(3,4-methylenedioxybenzylamino)ethyl]-8-ethoxy-5-quinolinesulfonamide], for which the EC50 worked out at 31 µM.

For the compound `CCOc1ccc(S(=O)(=O)NCCNCc2ccccc2)c2cccnc12` [(25), N-(2-benzylaminoethyl)-8-ethoxy-5-quinolinesulfonamide], the EC50 was 105 µM.

Regarding `CCOc1ccc(S(=O)(=O)NCCNCCc2ccccc2)c2cccnc12` [(26), N-(2-phenethylaminoethyl)-8-ethoxy-5-quinolinesulfonamide], the EC50 amounted to 112 µM.

On to `O=S(=O)(NCCN1CCNCC1)c1cccc2cnccc12` [(28), 1-(5-isoquinolinesulfonylaminoethyl)piperazine], for which the EC50 was 24 µM.

As to `O=S(=O)(NCCN1CCCNCC1)c1cccc2cnccc12` [(29), 1-(5-isoquinolinesulfonylaminoethyl)homopiperazine], the EC50 stood at 22 µM.

Take `O=S(=O)(NCCN1CCN(Cc2ccc3c(c2)OCO3)CC1)c1cccc2c(O)nccc12` [(34), 1-(1-hydroxy-5-isoquinolinesulfonylaminoethyl)-4-(3,4-methylenedioxybenzyl)piperazine hydrochloride]: the EC50 is 19 µM.

In the case of `O=S(=O)(NCCN1CCNCC1)c1ccc(Cl)c2ncccc12` [(37), 1-(8-chloro-5-quinolinesulfonylaminoethyl) piperazine], the EC50 was found to be 48 µM.

Turning to `O=S(=O)(NCCN1CCN(Cc2ccc3c(c2)OCO3)CC1)c1ccc(Cl)c2ncccc12` [(39), 1-(8-chloro-5-quinolinesulfonylaminoethyl)-4-(3,4-methylenedioxybenzyl)piperazine], the EC50 amounted to 31 µM.

With `O=S(=O)(NCCN1CCCN(Cc2ccc(Cl)cc2)CC1)c1ccc(Cl)c2ncccc12` [(40), 1-(8-chloro-5-quinolinesulfonylaminoethyl)-4-(4-chlorobenzyl)homopiperazine], the EC50 was determined as 68 µM.

Take `O=S(=O)(NCCN1CCN(Cc2ccc(Cl)cc2)CC1)c1ccc(Cl)c2ncccc12` [(41), 1-(8-chloro-5-quinolinesulfonylaminoethyl)-4-(4-chlorobenzyl)piperazine]: the EC50 stood at 78 µM.

Take `COc1ccc(CCN2CCCN(CCNS(=O)(=O)c3ccc(Cl)c4ncccc34)CC2)cc1OC` [(42), 1-(8-chloro-5-quinolinesulfonylaminoethyl)-4-(3,4-dimethoxyphenethyl)homopiperazine]: the EC50 came to 95 µM.

Take `COc1ccc(CCN2CCN(CCNS(=O)(=O)c3ccc(Cl)c4ncccc34)CC2)cc1OC` [(43), 1-(8-chloro-5-quinolinesulfonylaminoethyl)-4-(3,4-dimethoxyphenethyl)piperazine]: the EC50 was 106 µM.

`O=S(=O)(NCCN1CCCNCC1)c1cccc2ncccc12` [(44), 1-(5-quinolinesulfonylaminoethyl)homopiperazine]: the EC50 worked out at 91 µM.

As to `O=S(=O)(NCCN1CCCN(Cc2ccc3c(c2)OCO3)CC1)c1cccc2ncccc12` [(45), 1-(5-quinolinesulfonylaminoethyl)-4-(3,4-methylenedioxybenzyl)homopiperazine], the EC50 is 84 µM.

As to `CCOc1ccc(S(=O)(=O)NCCN2CCNCC2)c2cccnc12` [(47), 1-(8-ethoxy-5-quinolinesulfonylaminoethyl) piperazine], the EC50 was 60 µM.

For the compound `CCOc1ccc(S(=O)(=O)NCCN2CCN(Cc3ccc4c(c3)OCO4)CC2)c2cccnc12` [(49), 1-(8-ethoxy-5-quinolinesulfonylaminoethyl)-4-(3,4-methylenedioxybenzyl)piperazine], the EC50 was 46 µM.

Staying with this test, now noted: dose required for relaxing KCl-induced contraction to 50 %; final KCl concentration: 20 mM; 37 °C; compounds other than acid addition salts used as hydrochloride; 3 specimens per group; read-out: ED₅₀ Effect on KCl-induced contraction.
Regarding “1-(1-hydroxy-5-isoquinolinesulfonylaminoethyl) homopiperazine hydrochloride [(33)]”, the EC50 is 24 µM.

Turning to “1-(1-hydroxy-5-isoquinolinesulfonylaminoethyl) piperazine hydrochloride [(32)]”, the EC50 amounted to 27 µM.

Consider “1-(1-hydroxy-5-isoquinolinesulfonylaminoethyl)-3-(3,4-methylenedioxybenzyl)homopiperazine hydrochloride [(35)]”, for which the EC50 came out at 18 µM.
